Source: patent publication US20200197418A1, “COMPOUNDS FOR THE TREATMENT OF DISEASES CAUSED BY OXALATE ACCUMULATION” (UNIVERSIDAD DE GRANADA, priority 2017, published 2020)
Like-named read-outs stand apart in the source and are kept apart here. Marks after values point to notes of the source that are not given here.

What was measured:
[1] = tested on: Agxt1-KO mouse hepatocyte cultures; experiment: Oxalate reduction assay in primary hepatocyte cultures from hyperoxaluric mice, glycolate-loaded; type: cell-based; conditions: for Relative oxalate at 10 μM: compound at 10 μM, Agxt1-/- mouse hepatocytes with 5 mM glycolate, mean ± standard deviation; for EC50: Agxt1-KO mouse hepatocytes, 5 mM glycolate
Method: Isolation and culture of hepatocytes: The isolation of hepatocytes from AGT enzyme-deficient mice was carried out as described in the literature. A total of 3.0×10^5 cells/well were then cultured in 6-well plates in William's E medium supplemented with foetal bovine serum (5%), I-glutamine (2 mM), penicillin (100 U/ml), streptomycin (100 μg/ml), insulin (2.2 mIU/ml) and hydrocortisone (0.3 μg/ml). After 5 h, the medium was switched to serum-free complete William's E medium (Biochrom, Cambridge, UK), and the cells were treated with increasing concentrations of each of the drugs in the presence of 5 mM glycolate. Samples of the culture medium were collected at 24, 48 and 72 h after treatment, to quantify oxalate.
Determination of oxalate: The determination of oxalate excreted into the medium was carried out by assaying in the presence of oxalate oxidase using a commercial kit (Trinity Biotech, Co Wicklow, Ireland), following the manufacturer's indications. GraphPad Prism 5 software was used for the graphical representation of the data as the mean±SD.
The efficacy of reducing oxalate production was measured in primary hepatocyte cultures obtained from hyperoxaluric mice (Agxt1^−/−). Cultures of less than 5 days were used to prevent possible interferences due to cell differentiation. For the short-term increase in the production of oxalate in cells and for obtaining detectable levels in standard enzymatic assays, glycolate was added to the culture medium at a concentration of 5 mM. Firstly, the viability of the hepatocytes treated with increasing concentrations of each drug up to 200 μM in the presence of glycolate was tested in comparative assays with control hepatocytes not treated with a drug and at different times.
Oxalate reduction assays were then carried out. Samples of the culture medium were taken every 24 hours after treatment with each of the compounds under evaluation. In each of these samples was measured the concentration of oxalate excreted into the medium by Agxt1^−/− hepatocytes. The determination of oxalate in the samples was carried out using a colorimetric enzymatic assay based on two consecutive reactions catalysed by the enzymes oxalate oxidase and peroxidase, respectively.

[2] = tested on: mice with PH-1 (Agxt1-KO); conditions: cited from earlier work
[3] = Hepatocyte, 24 h after treatment, read-out: EC50 (24 h), reduced production of oxalate
[4] = Hepatocyte, 48 h after treatment, read-out: EC50 (48 h), reduced production of oxalate
[5] = Hepatocyte, 72 h after treatment, read-out: EC50 (72 h), reduced production of oxalate

| SMILES | Relative oxalate at 10 μM [1] | further results |
| --- | --- | --- |
| O=C(O)c1ccc(-c2cccs2)cc1O | 0.74 ± 0.16 | – |
| O=C(O)c1cc(-c2ccoc2)ccc1O | 0.89 ± 0.16 | – |
| O=C(O)c1cc(-c2ccco2)ccc1O [drawing 13] | −0.25 ± 0.2 | – |
| N.O=C(O)c1cc(-c2ccc(CNc3ccc(Br)cc3)o2)ccc1O | 0.373 ± 0.063 | – |
| O=C(O)c1cc(-c2ccc(F)cc2F)ccc1O | 0.88 ± 0.08 | – |
| O=C(O)c1cc(-c2ccccc2COc2cccc(C(F)(F)F)c2)ccc1O | 0.68 ± 0.21 | – |
| O=C(O)c1cc(-c2ccc(OCc3ccccc3)cc2)ccc1O | 0.8 ± 0.16 | – |
| O=C(O)c1cc(-c2ccco2)ccc1O [Compound 74, 5-(2-furyl)-2-hydroxybenzoic acid] | – | EC50 [1, 3]: 3.59 µM; EC50 [1, 4]: 7.88 µM; EC50 [1, 5]: 9.2 µM |
| O=C(O)c1ccc(-c2ccncc2)cc1O | 0.88 ± 0.03 | – |
| N.O=C(O)c1cc(-c2ccc(CNc3ccc([N+](=O)[O-])cc3)o2)ccc1O | −0.236 ± 0.115 | – |
| O=C(O)c1cc([N+](=O)[O-])c(-c2ccco2)cc1O | 0.86 ± 0.04 | – |
| O=C(O)c1ccc(-c2ccco2)cc1O [drawing 12] | 0.87 ± 0.15 | – |
| O=C(O)c1nnsc1Sc1ccc(Cl)cc1 [CCPST, reference compound] | – | EC50 ([1]; 24 h after treatment, read-out: EC50 (24 h), reduced production of oxalate): 25.3 µM; EC50 ([1]; 48 h after treatment, read-out: EC50 (48 h), reduced production of oxalate): 32.9 µM; EC50 ([1]; 72 h after treatment, read-out: EC50 (72 h), reduced production of oxalate): 33.9 µM; effectiveness in reducing oxalate levels [2]: reducing oxalate levels |
| Oc1ccc(-c2ccoc2)cc1O | 1.02 ± 0.3 | – |
| O=C(O)c1ccc(-c2ccc(O)cc2)cc1O | 0.82 ± 0.01 | – |
| C#CCCCC(=O)Nc1ccc(C(=O)c2ccc(NCc3ccc(-c4ccc(O)c(C(=O)O)c4)o3)cc2)cc1.N | 0.144 ± 0.322 | – |
| O=C(O)c1ccc(-c2ccc(CO)o2)cc1O | 0.88 ± 0.01 | – |
| COc1cccc(-c2ccc(C(=O)O)c(O)c2)c1 | 0.83 ± 0.03 | – |
| O=Cc1ccc(-c2ccc(O)c(C(=O)O)c2)o1 [drawing 17] | −0.06 ± 0.29^a | – |
| O=Cc1ccc(-c2ccc(C(=O)O)c(O)c2)o1 | 0.88 ± 0.18 | – |
| CC(=O)c1ccc(-c2ccc(C(=O)O)c(O)c2)s1 | 0.89 ± 0.14 | – |
| COc1ccc(COc2ccc(-c3ccc(C(=O)O)c(O)c3)cc2)cc1 | 0.90 ± 0.16 | – |
| COc1cc(-c2ccc(C=O)o2)ccc1C(=O)O | 0.82 ± 0.04 | – |
| O=C(O)c1ccc(-c2ccccc2COc2cc(F)cc(F)c2)cc1O | 0.72 ± 0.16 | – |
| O=C(O)c1cc(-c2ccc(CO)o2)ccc1O | 0.88 ± 0.19 | – |
| O=Cc1ccc(-c2ccc(O)c(C(=O)O)c2)o1 [Compound 78, 5-(5-formyl-2-furyl)-2-hydroxybenzoic acid] | – | EC50 [1, 3]: 3.45 µM; EC50 [1, 4]: 8.36 µM; EC50 [1, 5]: 11.2 µM |
| O=C(O)c1ccc(-c2ccccc2COc2cccc(C(F)(F)F)c2)cc1O | 0.62 ± 0.29 | – |
| O=C(O)c1cc(-c2cccs2)ccc1O | 0.82 ± 0.01 | – |
| O=C(O)c1ccc(-c2ccco2)cc1O [Compound 73, 4-(2-furyl)-2-hydroxybenzoic acid] | – | EC50 [1, 3]: 9.35 µM; EC50 [1, 4]: 92.2 µM |
